Values of other authors in patent US8653051B2, “Use of 3-alpha-androstanediol in combination with a PDE5 inhibitor, in the treatment of sexual dysfunction” (Emotional Brain B.V., priority 2006, dated 2014).

Settings: typical value after administration

SMILES: CCCc1nc(C)c2c(=O)nc(-c3cc(S(=O)(=O)N4CCN(CC)CC4)ccc3OCC)[nH]n12.Cl [vardenafil, piperazine, 1-[[3-(1,4-dihydro-5-methyl-4-oxo-7-propylimidazo[5,1-f][1,2,4]triazin-2-yl)-4-ethoxyphenyl]sulfonyl]-4-ethyl-, monohydrochloride]
- time to reach peak plasma concentration after administration: about 1 hour
